Laboratory results taken from patent publication US20220233652A1, “Pharmaceutical Compositions Comprising Integration-Promoting Peptides” (priority 2018, published 2022).

Key:
[1] = Mortality, body weight and safety in tumor mice models; format: in vivo, athymic nude mice; details: lung and pancreatic cancer models
Method: • 1. Mortality—every day • 2. Tumor measurements—twice a week • 3. Tumor weight post mortem • 4. Tissue preservation—kept in formalin or were snap freezed and kept at −80° C.
(§1) The first day of the study was defined as ‘Day 1’. The animals were administrated IP with either Vehicle (PBS or Formulation), lentiviral particles and SC with test items according to Table 27 on days 1, 4, 8 and 11. Body weight and tumor volume were checked on days 3, 7, 11, 14 and 17 (the latter was measured with a caliper). At the end of the experiment, on day 17, the mice were anesthetized and then sacrificed, and the tumors were removed, as well as lung, spleen, kidney and liver.

[2] = system: 1975 human lung cancer cells; assay: Lung cancer tumor mice model; format: in vivo, athymic nude mice; details: for Inhibition of growth of lung cancer tumors relative to control: day 11
Method: Two models of cancer were generated: lung cancer and pancreatic cancer. About 5×10^6 of 1975 human lung cancer cells per 0.1 ml PBS per mouse were injected to male 7 weeks old athymic nude mice (n=30). The cells were injected, subcutaneously at one site on the back of the mice. About 5×10^6 PANC-1 human pancreatic cancer cells per 0.1 ml PBS per mouse were injected to male 7 weeks old athymic nude mice (n=22). The cells were injected, subcutaneously at one site on the back of the mice. When tumors were palpable (˜0.3-0.5 cm^3), the mice were randomly divided into three groups (Table 27) and the viruses and/or peptides were injected, twice a week for two weeks.
as §1

[3] = INS HCl solubility and stability in isotonic buffers of different pH (5 mg/ml in buffer, diluted to 1 mg/ml, LC-MS); format: physicochemical
Method: Analytical HPLC-MS was performed using an Agilent 1260 series Liquid Chromatograph/Mass Selective Detector (MSD, Single Quadrupole) equipped with an electrospray interface and a UV diode array detector. Analyses were performed on an ACE C8, 50×3.0 mm, 3 μm column, with an isocratic 0.1% formic acid/ACN (19%) eluent, at a rate of 1 ml/min over a period of 5 minutes. UV absorption was measured at 220 nm and 215-395 nm. MS analysis was performed with ESI (electron spray ionization) with a positive ionization method. PBS isotonic buffer was prepared from 1 tablet of Sigma Phosphate buffer saline P4417, in 200 ml of deionized water (according to product reconstitution instructions). Acetate isotonic buffers were prepared from sodium acetate/acetic acid in water in 150 mM concentration. NaOH 50% solution was used to adjust the pH. NaOAc solution was prepared by dissolving 1.23 gr in 100 ml water. Acetic acid solution was prepared by adding 945 μl of acetic acid to 100 ml water. […] The samples were further diluted to 1 mg/ml before analyzing by HPLC. The samples were prepared by dilution of 80 μl of reaction solution with 320 μl of MeOH. Each sample was filtered through PTFE 0.45 um filter vial. The samples were run in LC-MS and data used for calculation concentration in buffer. All injections for stability assay were performed using 20 μl due to low peak intensity with 2 μl. Final concentration was calculated accordingly.

[4] = system: CD4 T-cell; assay: Phase I/IIa clinical trial: CD4 T-cell count; format: in vivo, human; details: patients treated with INS (part II with lopinavir plus ritonavir)
Method: Reduced viral protein p24 antigen. • 3. Functional Assessment of HIV Infection (FAHI) questionnaire.
In addition, the preliminary results indicated treatment efficacy as measured by decrease in viral load in HIV patients. Most patients achieved significant reduction in viral load for up to 90% from baseline during the first 5 weeks of SC administration, meeting its exploratory endpoint. […] In this study, patients were treated for 5 weeks with a combined treatment of the subcutaneous composition as previous (0.2-0.4 mg/kg twice a week) and commercially available lopinavir 800 mg plus ritonavir 200 mg daily. The control group received only lopinavir 800 mg plus ritonavir 200 mg for additional 5 weeks.

[5] = Phase I/IIa clinical trial: safety and tolerability; format: in vivo, human; details: HIV patients, 5 weeks SC administration
Source text: Patients are monitored for adverse events (AE) of the INS peptide such as rash, acute allergic reaction, bronchospasm, respiratory distress, and acute vascular leak syndrome. If a severe administration related reaction occurs, the drug administration is stopped. Blood chemistry, hematology, coagulation, and urinalysis are repeated on Days 1, 4, 8, 11, 15, 18, 22, 25 at the clinic visits.
The primary safety endpoint is the frequency, severity, and duration of side effects. Number of participants with treatment-related adverse events as assessed by CTCAE v4.03, are evaluated though study completion. Main adverse events evaluation is based on DADS Toxicity criteria (Division of AIDS DADS Table for Grading the Severity of Adult and Paediatric Adverse Events, Corrected Version 2.1): • Viral load • Lymphopenia/Neutropenia • Immuno-reaction over reaction/cytokine storm • Infection surrounding the administration site • Liver function (lab tests) • Kidney function (lab tests)
Incidence of withdrawal (drop-out rate) due to side effects is evaluated throughout the study.

[6] = PBS buffer pH 7.4, at 5° C. and at 25° C., 0 hours
[7] = acetate buffer pH 4, 5° C., 0 hours
[8] = acetate buffer pH 4, 5° C., 24 hours
[9] = acetate buffer pH 4, 5° C., 168 hours
[10] = acetate buffer pH 4, 25° C., 0 hours
[11] = acetate buffer pH 4, 25° C., 24 hours
[12] = acetate buffer pH 4, 25° C., 168 hours
[13] = acetate buffer pH 6, 5° C., 0 hours
[14] = acetate buffer pH 6, 5° C., 24 hours
[15] = acetate buffer pH 6, 5° C., 168 hours
[16] = acetate buffer pH 6, 25° C., 0 hours
[17] = acetate buffer pH 6, 25° C., 24 hours
[18] = acetate buffer pH 6, 25° C., 168 hours

Sequence: WTAVQMAVFIHNFKRK [INS]
- Mortality ([1]; 17 days): No animal was found dead or in morbid state
- Body weight ([1]; mice gained weight as expected): no differences between groups
- Inhibition of growth of lung cancer tumors relative to control ([2]; lentiviral particles IP + INS peptide 1.25 mg/kg SC on days 1, 4, 8, 11): 50%
- Inhibition of growth of lung cancer tumors relative to control ([2]; lentiviral particles IP + INS peptide 2.5 mg/kg SC on days 1, 4, 8, 11): 50%
- Comparison of doses at the end of the experiment ([2]; day 17, INS 1.25 mg/kg versus 2.5 mg/kg, with lentiviral particles): better results than with INS 2.5 mg/kg
- Area [3, 6]: 201.90 mAU*S
- Assay % [3, 6]: 2.91%
- Concentration calculated from LC-MS data [3, 6]: 30 µg/mL
- Area ([3]; PBS buffer pH 7.4, at 5° C. and at 25° C., 24 hours): Not observed
- Area ([3]; PBS buffer pH 7.4, at 5° C. and at 25° C., 168 hours): Not observed
- Solubility in PBS buffer pH 7.4 ([3]; a white precipitate was observed): no solubility at all
- Assay % [3, 7]: 66.84%
- Concentration calculated from LC-MS data [3, 7]: 646 µg/mL
- Assay % [3, 8]: 62.32%
- Concentration calculated from LC-MS data [3, 8]: 602 µg/mL
- Assay % [3, 9]: 62.00%
- Concentration calculated from LC-MS data [3, 9]: 599 µg/mL
- Assay % [3, 10]: 66.87%
- Concentration calculated from LC-MS data [3, 10]: 646 µg/mL
- Assay % [3, 11]: 66.25%
- Concentration calculated from LC-MS data [3, 11]: 640 µg/mL
- Assay % [3, 12]: 36.75%
- Concentration calculated from LC-MS data [3, 12]: 355 µg/mL
- Assay % [3, 13]: 73.49%
- Concentration calculated from LC-MS data [3, 13]: 729 µg/mL
- Assay % [3, 14]: 53.43%
- Concentration calculated from LC-MS data [3, 14]: 530 µg/mL
- Assay % [3, 15]: 44.15%
- Concentration calculated from LC-MS data [3, 15]: 438 µg/mL
- Assay % [3, 16]: 73.49%
- Concentration calculated from LC-MS data [3, 16]: 729 µg/mL
- Assay % [3, 17]: 52.42%
- Concentration calculated from LC-MS data [3, 17]: 520 µg/mL
- Assay % [3, 18]: 21.98%
- Concentration calculated from LC-MS data [3, 18]: 218 µg/mL
- Assay at time zero ([3]; acetate buffers pH 4 and pH 6): about 70%
- Stability at 5° C. versus 25° C. ([3]; acetate buffers pH 4 and pH 6): better stability at 5 °C compared to the samples at 25 °C
- Increase of CD4 T-cell count relative to baseline [4]: up to 97%
- Side effects and harm to immune system (monitored by CD4 cells) [5]: no side effects and no harm to immune system
